Earlier results as cited in patent publication US20220211667A1, “COMPOSITION FOR THE INTRAPERITONEAL TREATMENT OF SECONDARY BACTERIAL PERITONITIS WITH REDUCTION OF COMPLICATIONS” (priority 2019, published 2022).

Key:
[1] = tested on: polymorphonuclear leukocytes
[2] = tested on: resistant bacterial strains; conditions: overall; controlled clinical trials, oral or intravenous
[3] = tested on: strains of organisms from the susceptible genera
[4] = not given; remark: listed apart in the source
Pseudomonas aeruginosa = conditions: maximum, for Pseudomonas aeruginosa; controlled clinical trials, oral or intravenous
[5] = intraperitoneal; third and last day of treatment

## C[C@@H]1O[C@@H]1P(=O)(O)O [Fosfomycin disodium]
other
  solubility in water: highly soluble in water
  pH of 5% solution: 9.0-10.5

## C[C@@H]1O[C@@H]1P(=O)(O)O.NC(CO)(CO)CO [Fosfomycin trometamol]
other
  solubility in water: highly soluble in water
  pH of 5% solution: 3.5-5.5

## C[C@@H]1O[C@@H]1P(=O)(O)O [fosfomycin, [(2R,3S)-3-methyloxiran-2-yl]phosphonic acid]
[1]
  concentration in polymorphonuclear leukocytes relative to extracellular fluid: twice those of the extracellular fluid
[2]
  appearance of resistant bacterial strains: 3.0%
[3]; early studies, various antibiotic combinations
  tested strains showing synergistic effect: 70-100%
[3]; subsequent more extensive studies
  synergy rates: 36-74%
[4]; evidence of allergy
  eosinophilia: 0.2%
  transient rashes: 0.3 % of cases
[4]; in vivo
  transiently raised liver enzymes: 0.3 % of cases
Pseudomonas aeruginosa
  appearance of resistant bacterial strains: 15%

## GM-CSF: cytokine of the colony-stimulating factor family; mature human protein of 127 amino-acid residues, SEQ ID NO: 1
[5]
  patients with minor flu-like symptoms: 2 of 8
